Consider eight molecules from ChEMBL document CHEMBL4742395, “Substituted Pyrazole Derivatives As Selective CDK12/13 Inhibitors” (2019).

The target of assay [1] is T1, Cyclin-dependent kinase 12 (Homo sapiens, UniProt Q9NYV4). In words: Inhibition of CDK12 (unknown origin) using ULight - 4E - BP1( Thr37 / Thr46 ) as substrate preincubated for 60 mins bu LANCE-TR-FRET assay.
Target sequence in this assay (Q9NYV4 whole entry): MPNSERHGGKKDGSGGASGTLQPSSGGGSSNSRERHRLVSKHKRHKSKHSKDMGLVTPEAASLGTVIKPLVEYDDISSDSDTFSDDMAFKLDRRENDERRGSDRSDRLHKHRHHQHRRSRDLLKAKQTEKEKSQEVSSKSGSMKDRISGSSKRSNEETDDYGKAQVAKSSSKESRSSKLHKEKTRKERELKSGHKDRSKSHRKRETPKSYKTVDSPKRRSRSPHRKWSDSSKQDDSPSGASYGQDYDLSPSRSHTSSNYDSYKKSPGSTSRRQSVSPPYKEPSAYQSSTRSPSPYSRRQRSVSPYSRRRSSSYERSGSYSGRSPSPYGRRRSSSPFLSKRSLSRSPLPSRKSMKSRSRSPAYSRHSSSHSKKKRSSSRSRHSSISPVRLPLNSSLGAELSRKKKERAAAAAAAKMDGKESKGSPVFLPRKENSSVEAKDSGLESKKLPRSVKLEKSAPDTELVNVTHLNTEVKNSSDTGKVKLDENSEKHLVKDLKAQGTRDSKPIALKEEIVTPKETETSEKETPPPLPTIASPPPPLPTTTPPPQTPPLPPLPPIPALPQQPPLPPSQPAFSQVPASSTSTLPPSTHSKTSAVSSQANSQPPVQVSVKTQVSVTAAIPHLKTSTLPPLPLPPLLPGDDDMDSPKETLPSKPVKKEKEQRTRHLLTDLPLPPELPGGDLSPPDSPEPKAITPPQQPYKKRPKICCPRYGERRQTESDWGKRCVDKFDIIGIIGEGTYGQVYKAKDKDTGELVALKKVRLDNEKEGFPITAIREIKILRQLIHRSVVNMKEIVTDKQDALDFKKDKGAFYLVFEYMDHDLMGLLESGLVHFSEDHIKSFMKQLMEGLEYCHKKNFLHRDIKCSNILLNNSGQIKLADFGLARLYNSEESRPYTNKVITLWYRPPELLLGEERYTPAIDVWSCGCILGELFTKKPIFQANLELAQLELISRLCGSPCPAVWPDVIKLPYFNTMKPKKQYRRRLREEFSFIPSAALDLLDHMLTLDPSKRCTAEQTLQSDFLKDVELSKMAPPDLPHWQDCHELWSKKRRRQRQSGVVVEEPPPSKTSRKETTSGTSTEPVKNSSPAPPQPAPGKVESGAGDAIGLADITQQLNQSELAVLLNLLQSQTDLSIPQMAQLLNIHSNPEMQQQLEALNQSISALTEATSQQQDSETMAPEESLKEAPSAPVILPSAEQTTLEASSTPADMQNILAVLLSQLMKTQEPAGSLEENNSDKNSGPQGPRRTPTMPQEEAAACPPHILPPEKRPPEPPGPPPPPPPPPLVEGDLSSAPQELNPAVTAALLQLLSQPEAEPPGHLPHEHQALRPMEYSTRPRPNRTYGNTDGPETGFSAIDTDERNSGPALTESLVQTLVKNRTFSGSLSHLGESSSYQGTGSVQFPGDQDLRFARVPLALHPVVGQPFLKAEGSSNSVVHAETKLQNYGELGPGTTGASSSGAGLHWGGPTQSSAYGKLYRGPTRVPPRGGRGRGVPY
Assay [2] has as its target Cyclin-dependent kinase 13 (Homo sapiens, UniProt Q14004). In words: Binding affinity to CDK13 (unknown origin) by TR-FRET assay. (TR-FRET usually uses a lanthanide donor and a delayed reading to cut background.)
Assay [3] has as its target Cyclin-dependent kinase 7 (Homo sapiens) (UniProt P50613). In words: Binding affinity to CDK7 in human Jurkat cells assessed as target occupancy after 6 hrs by spectrophotometry. Format: cell-based.
Assay [4] is filed under the species Homo sapiens. The assay is described as follows: Selectivity index, ratio of target occupancy for CDK7 in human Jurkat cells to target occupancy for CDK12 in human Jurkat cells. Format: cell-based.
For assay [5], the target named is T1, Cyclin-dependent kinase 12. The assay is described as follows: Binding affinity to CDK12 in human Jurkat cells assessed as target occupancy after 6 hrs by spectrophotometry. Format: cell-based.
Target sequence in this assay (Q9NYV4 whole entry, looked up): as the sequence (Q9NYV4 whole entry) above
The species entered for assay [6] is Homo sapiens. In words: Selectivity index, ratio of IC50 for inhibition of CDK7 (unknown origin) to IC50 for inhibition of CDK12 (unknown origin).
The species named for assay [7] is Homo sapiens. The assay is described as follows: Selectivity index, ratio of IC50 for inhibition of CDK7 (unknown origin) to IC50 for binding affinity to CDK13 (unknown origin).

The structures appear in SMILES notation. pIC50: −log10 of the molar value.

In general, pIC50 refers to −log10 of the IC50, conventionally taken in molar units.

Cyclin-dependent kinase 13, sequence (Q14004 whole entry): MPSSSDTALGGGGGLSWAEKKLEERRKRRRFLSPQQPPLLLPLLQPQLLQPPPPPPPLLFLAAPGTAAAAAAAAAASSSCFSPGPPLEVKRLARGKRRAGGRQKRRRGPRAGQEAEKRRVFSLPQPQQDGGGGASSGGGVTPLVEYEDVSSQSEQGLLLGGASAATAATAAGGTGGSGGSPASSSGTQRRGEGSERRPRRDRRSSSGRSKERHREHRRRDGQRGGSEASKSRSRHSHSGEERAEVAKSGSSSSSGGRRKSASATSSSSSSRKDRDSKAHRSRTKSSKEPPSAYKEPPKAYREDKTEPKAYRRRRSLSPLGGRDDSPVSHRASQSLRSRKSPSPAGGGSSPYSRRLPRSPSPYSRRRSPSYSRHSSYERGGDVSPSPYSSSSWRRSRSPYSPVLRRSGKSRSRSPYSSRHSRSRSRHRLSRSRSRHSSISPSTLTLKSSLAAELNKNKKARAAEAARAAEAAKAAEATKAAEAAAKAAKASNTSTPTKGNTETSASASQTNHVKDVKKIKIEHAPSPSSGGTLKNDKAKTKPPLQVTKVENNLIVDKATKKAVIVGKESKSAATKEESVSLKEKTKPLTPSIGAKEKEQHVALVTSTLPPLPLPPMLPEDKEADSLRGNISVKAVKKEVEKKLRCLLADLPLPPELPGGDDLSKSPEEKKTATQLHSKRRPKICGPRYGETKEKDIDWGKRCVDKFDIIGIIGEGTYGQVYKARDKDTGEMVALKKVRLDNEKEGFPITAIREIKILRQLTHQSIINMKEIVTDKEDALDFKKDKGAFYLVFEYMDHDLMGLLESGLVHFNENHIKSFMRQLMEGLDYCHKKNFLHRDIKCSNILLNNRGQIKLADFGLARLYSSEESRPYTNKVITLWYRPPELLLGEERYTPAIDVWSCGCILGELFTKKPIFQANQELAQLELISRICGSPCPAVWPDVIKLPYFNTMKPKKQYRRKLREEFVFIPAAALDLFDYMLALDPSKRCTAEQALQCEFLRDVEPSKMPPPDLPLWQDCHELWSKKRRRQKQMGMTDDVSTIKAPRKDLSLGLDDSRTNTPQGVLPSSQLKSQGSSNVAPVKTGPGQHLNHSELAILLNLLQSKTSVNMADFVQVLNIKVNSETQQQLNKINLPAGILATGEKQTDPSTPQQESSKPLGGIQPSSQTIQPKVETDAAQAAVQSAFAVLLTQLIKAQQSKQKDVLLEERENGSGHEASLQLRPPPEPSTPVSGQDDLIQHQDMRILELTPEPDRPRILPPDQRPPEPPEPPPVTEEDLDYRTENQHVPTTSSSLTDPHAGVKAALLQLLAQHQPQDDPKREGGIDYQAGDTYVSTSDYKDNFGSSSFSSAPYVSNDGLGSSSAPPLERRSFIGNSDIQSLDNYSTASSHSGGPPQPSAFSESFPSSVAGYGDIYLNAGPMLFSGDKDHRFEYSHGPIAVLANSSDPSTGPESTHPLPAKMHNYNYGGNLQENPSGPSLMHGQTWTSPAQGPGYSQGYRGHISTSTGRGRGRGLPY
Cyclin-dependent kinase 7 (Homo sapiens), sequence (P50613 whole entry): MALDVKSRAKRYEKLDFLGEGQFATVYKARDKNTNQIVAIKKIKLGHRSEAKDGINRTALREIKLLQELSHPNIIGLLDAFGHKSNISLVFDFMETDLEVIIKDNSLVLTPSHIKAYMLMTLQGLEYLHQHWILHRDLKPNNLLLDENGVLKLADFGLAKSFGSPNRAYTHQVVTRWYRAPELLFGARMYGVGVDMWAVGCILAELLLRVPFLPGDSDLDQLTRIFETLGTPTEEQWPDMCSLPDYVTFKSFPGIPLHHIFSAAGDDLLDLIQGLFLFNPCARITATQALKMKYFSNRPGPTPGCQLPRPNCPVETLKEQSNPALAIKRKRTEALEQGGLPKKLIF

Take `CC#CC(=O)N1CCC=C(c2ccc(CC(=O)Nc3cc(C4CC4)[nH]n3)cn2)C1`: the pIC50 in assay [1] is 7.43; in assay [2], 8.30.
On to `CC(C(=O)Nc1cc(C2CC2)[nH]n1)c1cccc(C2CCN(C(=O)/C=C/CN(C)C)CC2)c1` (stereo not given), for which the Occ50 in assay [3] is 130 nM; in assay [5], 0.305 µM. Moreover, the Ratio in the assay listed under Homo sapiens [4] is 0.425.
In the case of `C=CC(=O)N1CCC=C(c2ccc(CC(=O)Nc3cc(C4CC4)[nH]n3)cn2)C1`, the pIC50 in assay [1] was 7.64; in assay [2] it was 8.40. The Ratio IC50 came to 75.2 in the assay listed under Homo sapiens [6] and 432 in the assay listed under Homo sapiens [7]. Moreover, the Occ50 in assay [5] was determined as 0.016 µM.
For the molecule `C=CC(=O)N1CC=C(c2ccc(CC(=O)Nc3cc(C4CC4)[nH]n3)cn2)CC1`, the pIC50 in assay [1] is 7.40; in assay [2] it was 7.72. The Occ50 in assay [5] worked out at 0.025 µM.
Turning to `C=CC(=O)N1CCC(c2ccc(C(C)C(=O)Nc3cc(C4CC4)[nH]n3)cn2)C1` (stereo not given), the pIC50 in assay [1] was 7.26; in assay [2], 8.22.
The like results for `CCN(CC)C/C=C/C(=O)N1CC=C(c2ccc([C@H](C)C(=O)Nc3cc(C4CC4)[nH]n3)cc2)CC1` were, in that order, 6.05 and 7.14.
For `C=CC(=O)N1CCC=C(c2ccc(C(C(=O)Nc3cc(C4CC4)[nH]n3)C(C)C)cc2)C1` (stereo not given), in that order: 6.80 and 6.55.
Consider `C[C@H](C(=O)Nc1cc(C2CC2)[nH]n1)c1ccc(C2=CCN(C(=O)/C=C/CN(C)C)CC2)cc1`, for which the Occ50 in assay [3] was found to be 1670 nM.
